Target: T1, aromatase (CYP19) (Homo sapiens, UniProt P11511)
T1 construct: purchased BD Biosciences Inc. (U.S.A.)
T1 sequence (P11511 1-503): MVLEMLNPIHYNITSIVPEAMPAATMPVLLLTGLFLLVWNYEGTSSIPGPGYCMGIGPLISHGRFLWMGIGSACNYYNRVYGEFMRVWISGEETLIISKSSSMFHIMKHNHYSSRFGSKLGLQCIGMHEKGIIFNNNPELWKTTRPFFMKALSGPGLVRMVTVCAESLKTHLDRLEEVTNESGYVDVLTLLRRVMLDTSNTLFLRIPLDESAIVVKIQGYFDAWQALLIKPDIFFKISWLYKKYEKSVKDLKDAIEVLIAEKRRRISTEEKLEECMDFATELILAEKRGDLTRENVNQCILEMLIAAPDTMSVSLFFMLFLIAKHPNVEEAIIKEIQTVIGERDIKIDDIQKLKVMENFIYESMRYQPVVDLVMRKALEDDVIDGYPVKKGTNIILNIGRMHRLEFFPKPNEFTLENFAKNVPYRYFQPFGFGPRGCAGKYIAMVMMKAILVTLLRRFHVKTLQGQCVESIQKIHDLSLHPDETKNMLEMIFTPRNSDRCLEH
Assay: Measurement of aromatase-inhibitory activity (fluorometric HFC formation, 96-well microplate, BD Biosciences reagents)
Type: biochemical
Conditions: for inhibition at 0.18 µM: concentration 0.18 μM; for inhibition at 0.18 µM / inhibition at 0.53 µM / inhibition at 1.6 µM / inhibition at 4.8 µM: average of three experiments, read-out: Inhibitory rate; for inhibition at 0.53 µM: concentration 0.53 μM; for inhibition at 1.6 µM: concentration 1.60 μM; for inhibition at 4.8 µM: concentration 4.80 μM; for IC50: text b76, components
Description: That is, by using a 96-well microplate, after 144 μL of a previously prepared NADPH-producing system solution (NADPH-Cofactor Mix) and 6 μL of an extract solution of test samples were mixed, and incubated at 37° C. for 10 minutes. Then, 100 μL of a solution (Enzyme Substrate Mix) containing an enzyme and a substrate was mixed with the above mixture, and reacted at 37° C. for 30 minutes. Thereafter, 75 μL of a reaction-terminating solution was added to the above, and an amount of a formed HFC (7-hydroxy-4-trifluoromethyl coumarin) which is a metabolite of the substrate was obtained by measuring a fluorescent intensity at an excitation wavelength of 409 nm and a fluorescent wavelength of 538 nm using a plate reader ([…]luor, TECAN). Incidentally, 75 μL of stop solution was added to a blank after incubation for 10 minutes, in place of adding the solution of enzyme and substrate. Aromatase inhibitory rate was calculated by the formula 1.
Aromatase inhibitory rate (%)={1−[…]}×100 [Numerical formula 1]
A=(Absorbance after enzymatic reaction without test sample−Absorbance of blank thereof) B=(Absorbance after enzymatic reaction with each test sample−Absorbance of each blank thereof)
Also, to avoid a non-specific inhibitory action (for example, protein coagulation action due to tannin), a control protein which incidents to the reagent was added to the NADPH-producing system solution.
With regard to solution of test sample, the concentration was stepwisely diluted and an inhibitory rate at each concentration was obtained, and from the results, the concentration of 50% inhibition (IC50 value) was obtained according to the interpolation method.

Row | inhibition at 0.18 µM | inhibition at 0.53 µM | inhibition at 1.6 µM | inhibition at 4.8 µM | IC50 | Structure (SMILES) | aromatase-inhibitory activity, concentration dependency in words
1 | 30.4 ± 1.5% | 48.1 ± 6.9% | 63.5 ± 12.6% | 67.7 ± 21.3% | 754 nM | COc1ccc(-c2oc3c(CC=C(C)C)c(O[C@@H]4O[C@H](CO)[C@@H](O)[C@H](O)[C@H]4O)cc(O)c3c(=O)c2O[C@@H]2O[C@@H](C)[C@H](O)[C@@H](O)[C@H]2O)cc1 [Icariin, icariin] | –
2 | 8.7 ± 9.3% | 12.4 ± 4.6% | 20.6 ± 1.2% | 59.4 ± 7.1% | 4860 nM | COc1cc(C2Oc3cc(C4Oc5cc(O)cc(O)c5C(=O)C4O)ccc3OC2CO)ccc1O (centres unmarked) [Silybin, silybin] | concentration-dependent inhibitory activity

— patent US20100255127A1, “AROMATASE INHIBITOR” (KRACIE PHARMA, LTD., priority 2007, published 2010)
